Tests used:
Assay type in all cases: in vivo
[1] = system: field corn (Zea mays L., var. Dekalb 535, CORN); experiment: Greenhouse herbicide screen, post-emerge application, crop damage rating; settings: POST emergent, 14 days after application, scale 0-100
Procedure, shortened: (§1)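 Visual phytotoxicity scored 0–100 at 14 days, where 0 means no damage and 100 all plants dead. Compounds had been applied in acetone by track sprayer at 15–1000 g ai/ha in 187 l/ha.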

[2] = system: upland rice (Oryza sp., var.Cocodrie, RICE); experiment: as above; settings: POST emergent, 14 days after application, scale 0-100
Procedure, shortened: as §1

[3] = system: green foxtail (Setaria viridis, SETVI); experiment: Greenhouse herbicide screen, pre-emerge application, phytotoxicity rating; settings: PRE emergent, 14 days after application, rating scale 0-100
Procedure, shortened: as §1

[4] = system: sicklepod (Cassia obtusifolia, CASOB); experiment: as above; settings: PRE emergent, 14 days after application, rating scale 0-100
Procedure, shortened: as §1

[5] = system: redroot pigweed (Amaranthus retrofiexus, AMARE); experiment: as above; settings: PRE emergent, 14 days after application, rating scale 0-100
Procedure, shortened: as §1

[6] = system: ivyleaf morningglory (Ipomoea hederacea, IPOHE); experiment: as above; settings: PRE emergent, 14 days after application, rating scale 0-100
Procedure, shortened: as §1

[7] = system: large crabgrass (Digitaria sanguinalis, DIGSA); experiment: as above; settings: PRE emergent, 14 days after application, rating scale 0-100
Procedure, shortened: as §1

[8] = system: johnsongrass (Sorghum halepense, SORHA); experiment: as above; settings: PRE emergent, 14 days after application, rating scale 0-100
Procedure, shortened: as §1

[9] = system: barnyardgrass (Echinochloa crus-galli, ECHCG); experiment: as above; settings: PRE emergent, 14 days after application, rating scale 0-100
Procedure, shortened: as §1

[10] = system: common ragweed (Ambrosia artemisiifolia L., AMBEL); experiment: as above; settings: PRE emergent, 14 days after application, rating scale 0-100
Procedure, shortened: as §1

[11] = system: lambsquarters (Chenopodium album, CHEAL); experiment: as above; settings: PRE emergent, 14 days after application, rating scale 0-100
Procedure, shortened: as §1

[12] = system: velvetleaf (Abutilon theophrasti, ABUTH); experiment: as above; settings: PRE emergent, 14 days after application, rating scale 0-100
Procedure, shortened: as §1

[13] = system: cocklebur (Xanthium strumarium, XANST); experiment: as above; settings: PRE emergent, 14 days after application, rating scale 0-100
Procedure, shortened: as §1

[14] = system: field corn (Zea mays L., var. Dekalb 535, CORN); experiment: Greenhouse herbicide screen, pre-emerge application, crop damage rating; settings: PRE emergent, 14 days after application, rating scale 0-100
Procedure, shortened: as §1

[15] = system: upland rice (Oryza sp., var.Cocodrie, RICE); experiment: as above; settings: PRE emergent, 14 days after application, rating scale 0-100
Procedure, shortened: as §1

[16] = system: green foxtail (Setaria viridis, SETVI); experiment: Greenhouse herbicide screen, post-emerge application, phytotoxicity rating; settings: POST emergent, 14 days after application, scale 0-100
Procedure, shortened: as §1

[17] = system: sicklepod (Cassia obtusifolia, CASOB); experiment: as above; settings: POST emergent, 14 days after application, scale 0-100
Procedure, shortened: as §1

[18] = system: redroot pigweed (Amaranthus retrofiexus, AMARE); experiment: as above; settings: POST emergent, 14 days after application
Procedure, shortened: as §1

[19] = system: ivyleaf morningglory (Ipomoea hederacea, IPOHE); experiment: as above; settings: POST emergent, 14 days after application, scale 0-100
Procedure, shortened: as §1

[20] = system: large crabgrass (Digitaria sanguinalis, DIGSA); experiment: as above; settings: POST emergent, 14 days after application, scale 0-100
Procedure, shortened: as §1

[21] = system: johnsongrass (Sorghum halepense, SORHA); experiment: as above; settings: POST emergent, 14 days after application, scale 0-100
Procedure, shortened: as §1

[22] = system: barnyardgrass (Echinochloa crus-galli, ECHCG); experiment: as above; settings: POST emergent, 14 days after application, scale 0-100
Procedure, shortened: as §1

[23] = system: common ragweed (Ambrosia artemisiifolia L., AMBEL); experiment: as above; settings: POST emergent, 14 days after application, scale 0-100
Procedure, shortened: as §1

[24] = system: lambsquarters (Chenopodium album, CHEAL); experiment: as above; settings: POST emergent, 14 days after application, scale 0-100
Procedure, shortened: as §1

[25] = system: velvetleaf (Abutilon theophrasti, ABUTH); experiment: as above; settings: POST emergent, 14 days after application, scale 0-100
Procedure, shortened: as §1

[26] = system: cocklebur (Xanthium strumarium, XANST); experiment: as above; settings: POST emergent, 14 days after application, scale 0-100
Procedure, shortened: as §1

[27] = 63 g ai/ha, scale 0-100 (0 no damage, 100 complete death)

CC(=O)OC(=NN1C(C)CCCC1C)c1cc(-n2c(=O)cc(C(F)(F)F)n(C)c2=O)c(F)cc1Cl (stereo not drawn) [Compound 4-9]
crop damage rating CORN ([1]; 63 g ai/ha): 0
crop damage rating CORN ([1]; 250 g ai/ha): 50
crop damage rating RICE ([2]; 63 g ai/ha): 0
crop damage rating RICE ([2]; 250 g ai/ha): 0
phytotoxicity rating SETVI ([3]; 63 g ai/ha): 100
phytotoxicity rating SETVI ([3]; 250 g ai/ha): 100
phytotoxicity rating CASOB ([4]; 63 g ai/ha): 80
phytotoxicity rating CASOB ([4]; 250 g ai/ha): 100
phytotoxicity rating AMARE ([5]; 63 g ai/ha): 100
phytotoxicity rating AMARE ([5]; 250 g ai/ha): 100
phytotoxicity rating IPOHE ([6]; 63 g ai/ha): 100
phytotoxicity rating IPOHE ([6]; 250 g ai/ha): 100
phytotoxicity rating DIGSA ([7]; 63 g ai/ha): 99
phytotoxicity rating DIGSA ([7]; 250 g ai/ha): 100
phytotoxicity rating SORHA ([8]; 63 g ai/ha): 65
phytotoxicity rating SORHA ([8]; 250 g ai/ha): 100
phytotoxicity rating ECHCG ([9]; 63 g ai/ha): 55
phytotoxicity rating ECHCG ([9]; 250 g ai/ha): 99
phytotoxicity rating AMBEL ([10]; 63 g ai/ha): 90
phytotoxicity rating AMBEL ([10]; 250 g ai/ha): 100
phytotoxicity rating CHEAL ([11]; 63 g ai/ha): 100
phytotoxicity rating CHEAL ([11]; 250 g ai/ha): 100
phytotoxicity rating ABUTH ([12]; 63 g ai/ha): 100
phytotoxicity rating ABUTH ([12]; 250 g ai/ha): 100
phytotoxicity rating XANST ([13]; 63 g ai/ha): 35
phytotoxicity rating XANST ([13]; 250 g ai/ha): 100
crop damage rating CORN ([14]; 63 g ai/ha): 30
crop damage rating CORN ([14]; 250 g ai/ha): 95
crop damage rating RICE ([15]; 63 g ai/ha): 10
crop damage rating RICE ([15]; 250 g ai/ha): 15
phytotoxicity rating SETVI ([16]; 63 g ai/ha): 65
phytotoxicity rating SETVI ([16]; 250 g ai/ha): 100
phytotoxicity rating CASOB ([17]; 63 g ai/ha): 60
phytotoxicity rating CASOB ([17]; 250 g ai/ha): 90
phytotoxicity rating AMARE [18, 27]: 100
phytotoxicity rating AMARE ([18]; 250 g ai/ha, scale 0-100): 100
phytotoxicity rating IPOHE ([19]; 63 g ai/ha): 95
phytotoxicity rating IPOHE ([19]; 250 g ai/ha): 100
phytotoxicity rating DIGSA ([20]; 63 g ai/ha): 50
phytotoxicity rating DIGSA ([20]; 250 g ai/ha): 99
phytotoxicity rating SORHA ([21]; 63 g ai/ha): 0
phytotoxicity rating SORHA ([21]; 250 g ai/ha): 80
phytotoxicity rating ECHCO ([22]; 63 g ai/ha): 0
phytotoxicity rating ECHCO ([22]; 250 g ai/ha): 15
phytotoxicity rating AMBEL ([23]; 63 g ai/ha): 60
phytotoxicity rating AMBEL ([23]; 250 g ai/ha): 99
phytotoxicity rating CHEAL ([24]; 63 g ai/ha): 100
phytotoxicity rating CHEAL ([24]; 250 g ai/ha): 100
phytotoxicity rating ABUTH ([25]; 63 g ai/ha): 100
phytotoxicity rating ABUTH ([25]; 250 g ai/ha): 100
phytotoxicity rating XANST ([26]; 63 g ai/ha): 30
phytotoxicity rating XANST ([26]; 250 g ai/ha): 60

CC(=NN=C(OS(C)(=O)=O)c1cc(-n2c(=O)cc(C(F)(F)F)n(C)c2=O)c(F)cc1Cl)C(C)(C)C [Compound 5-3]
crop damage rating CORN ([1]; 63 g ai/ha): 60
crop damage rating RICE ([2]; 63 g ai/ha): 10
phytotoxicity rating SETVI ([3]; 63 g ai/ha): 55
phytotoxicity rating CASOB ([4]; 63 g ai/ha): 70
phytotoxicity rating AMARE ([5]; 63 g ai/ha): 100
phytotoxicity rating IPOHE ([6]; 63 g ai/ha): 80
phytotoxicity rating DIGSA ([7]; 63 g ai/ha): 60
phytotoxicity rating SORHA ([8]; 63 g ai/ha): 90
phytotoxicity rating ECHCG ([9]; 63 g ai/ha): 30
phytotoxicity rating AMBEL ([10]; 63 g ai/ha): 60
phytotoxicity rating CHEAL ([11]; 63 g ai/ha): 100
phytotoxicity rating ABUTH ([12]; 63 g ai/ha): 100
phytotoxicity rating XANST ([13]; 63 g ai/ha): 30
crop damage rating CORN ([14]; 63 g ai/ha): 50
crop damage rating RICE ([15]; 63 g ai/ha): 30
phytotoxicity rating SETVI ([16]; 63 g ai/ha): 60
phytotoxicity rating CASOB ([17]; 63 g ai/ha): 50
phytotoxicity rating AMARE [18, 27]: 99
phytotoxicity rating IPOHE ([19]; 63 g ai/ha): 100
phytotoxicity rating DIGSA ([20]; 63 g ai/ha): 60
phytotoxicity rating SORHA ([21]; 63 g ai/ha): 30
phytotoxicity rating ECHCO ([22]; 63 g ai/ha): 100
phytotoxicity rating AMBEL ([23]; 63 g ai/ha): 90
phytotoxicity rating CHEAL ([24]; 63 g ai/ha): 80
phytotoxicity rating ABUTH ([25]; 63 g ai/ha): 95
phytotoxicity rating XANST ([26]; 63 g ai/ha): 70

Reference: patent publication US6770597B2, “Benzohydrazide derivatives as herbicides and desiccant compositions containing them” (Ishihara Sangyo Kaisha, Ltd., priority 2002, dated 2004)
